Results taken from US5382430A, “Method for the stimulation of the immune system of an animal by use of limulus test-positive plant glycolipid” (priority 1989, dated 1995).

Columns and labels:
[1] = test system: TNF; details: prior art statement; cited from earlier work
[2] = test system: parietal bones of fowl's embryo; assay: Osteogenesis stimulation: osteoclast activation test, 45Ca leakage (Table 9); details: 1 unit/ml
Method: Stimulation of Osteogenesis
This stimulation was confirmed by an osteolast activation test.
Osteoclast cells are those in charge of absorbing bony tissue which destroy old bones in said tissue. […] As a result, the osteogenesis is presumed to be stimulated.
In the osteoclast activation test, parietal bones of fowl's embryo are used as experimental samples. That is, the parietal bones of fowl's embryo are labelled with ^45 Ca, and are cultured in a medium containing a medicine candidate (treated group) or in a said candidate-free medium (control group), and thereafter the quantity of the ^45 Ca remaining in the bones and that of the ^45 Ca leaked into the medium during culture are determined. The ^45 Ca leakage rates in both tile treated and control groups are calculated according to the following equation:
^45 Ca leakage rate=(Quantity of ^45 Ca leaked)/(Quantity of
remaining ^45 Ca+Quantity of ^45 Ca leaked)
The effect of the candidate is expressed by the following T/C rate:
T/C rate=(Quantity of ^45 Ca leaked in the treated group)/(Quantity of
^45 Ca leaked in the control group) […]
4) The medium (each, 250 μl) was added to 4.5 ml of ACSII scintillator (Amersham Co. In U.K.), and the counting was made on the basis of liquid scintillation to determine the quantity of the 45Ca leaked into the medium. […]

In the case of lentinan, the TNF productivity [1] is listed as “no TNF productivity”.

For sizofiran [Sonifilan], the TNF productivity [1] is given as “no TNF productivity”.

In the case of `CC(C)C[C@H](NC(=O)[C@@H](O)[C@H](N)Cc1ccccc1)C(=O)O` [Bestatin, ubenimex], the TNF productivity [1] is given as “no TNF productivity”.

In the case of polysaccharide K [PSK], the TNF productivity [1] is given as “no TNF productivity”.

B1: parathyroid hormone (protein, UniProt P01270 32-115, looked up)
Parathyroid hormone: SVSEIQLMHNLGKHLNSMERVEWLRKKLQDVHNFVALGAPLAPRDAGSQRPRKKEDNVLVESHEKSLGEADKADVNVLTKAKSQ
notes: Already known parathyroid hormone which is a bony tissue absorbance hormone
For B1, the “45Ca leakage, Treated T” value [2] was 4.46 and the T/C rate [2] was 1.22.
